For twelve molecules, EC50 and CC50 results are on record in patent US10786484B2, “Mono- or di-substituted indole derivatives as dengue viral replication inhibitors” (Janssen Pharmaceuticals, Inc., priority 2015, dated 2020).

For series [1], the system named is DENV-2 16681 strain labeled with eGFP. The series is described as follows: DENV-2 antiviral assay (eGFP fluorescence read-out in Vero cells). Format: cell-based, Dengue virus. The conditions noted are these: DENV-2 16681 eGFP, MOI 0.5, 3 days. How it is done:
The antiviral activity of all the compounds of the invention was tested against the DENV-2 16681 strain which was labeled with enhanced green fluorescent protein (eGPF). The culture medium consists of minimal essential medium supplemented with 2% of heat-inactivated fetal calf serum, 0.04% gentamycin (50 mg/mL) and 2 mM of L-glutamine. Vero cells, obtained from ECACC, were suspended in culture medium and 25 μL was added to 384-well plates (2500 cells/well), which already contain the antiviral compounds. Typically, these plates contain a 5-fold serial dilution of 9 dilution steps of the test compound at 200 times the final concentration in 100% DMSO (200 nL). […] Finally, each plate contains wells which are assigned as virus controls (containing cells and virus in the absence of compound), cell controls (containing cells in the absence of virus and compound) and medium controls (containing medium in the absence of cells, virus and compounds). To the wells assigned as medium control, 25 μL of culture medium was added instead of Vero cells. Once the cells were added to the plates, the plates were incubated for 30 minutes at room temperature to allow the cells to distribute evenly within the wells. Next, the plates were incubated in a fully humidified incubator (37° C., 5% CO2) until the next day. Then, DENV-2 strain 16681, labeled with eGFP, was added at a multiplicity of infection (MOI) of 0.5. Therefore, 15 μL of virus suspension was added to all the wells containing test compound and to the wells assigned as virus control. In parallel, 15 μL of culture medium was added to the medium and cell controls. Next, the plates were incubated for 3 days in a fully humidified incubator (37° C., 5% CO2). At the day of the read out, the eGFP fluorescence was measured using an automated fluorescence microscope at 488 nm (blue laser). Using an in-house LIMS system, inhibition dose response curves for each compound were calculated and the half maximal effective concentration (EC50) was determined. Therefore, the percent inhibition (I) for every test concentration is calculated using the following formula: I=100*([…])/(SVC−SCC); ST, SCC and SVC are the amount of eGFP signal in the test compound, cell control and virus control wells, respectively. The EC50 represents the concentration of a compound at which the virus replication is inhibited with 50%, as measured by a 50% reduction of the eGFP fluorescent intensity compared to the virus control. The EC50 is calculated using linear interpolation (Table 1).

For series [2], the system named is Vero cells. The conditions noted are these: African green monkey.

The term EC50 denotes the concentration giving half of the maximal effect. As a reminder, the CC50 is the concentration giving 50% cytotoxicity. Regarding `COc1cc(NC(C(=O)c2c[nH]c3cc(F)ccc23)c2ccc(F)cc2OCCO)cc(S(C)(=O)=O)c1` (single isomer, unassigned) [Compound 1B, 1-(6-fluoro-1H-indol-3-yl)-2-(4-fluoro-2-(2-hydroxyethoxy)phenyl)-2-((3-methoxy-5-(methylsulfonyl)phenyl)amino)ethanone], the EC50 in series [1] turned out to be 0.085 µM. Further, half-maximal cytotoxicity in series [2] (CC50) was put at 13 µM.
Taken in the same sequence, the figures for `COc1cc(NC(C(=O)c2c[nH]c3cc(Cl)ccc23)c2ccc(F)cc2OCCO)cc(S(C)(=O)=O)c1` (single isomer, unassigned) [Compound 2B, 1-(6-chloro-1H-indol-3-yl)-2-(4-fluoro-2-(2-hydroxyethoxy)phenyl)-2-((3-methoxy-5-(methylsulfonyl)phenyl)amino)-ethanone] were 0.021 µM and 12 µM.
On to `COc1cc(NC(C(=O)c2c[nH]c3c(C)c(F)ccc23)c2ccc(F)cc2OCCO)cc(S(C)(=O)=O)c1` (single isomer, unassigned) [Compound 3B, 2-(4-fluoro-2-(2-hydroxyethoxy)phenyl)-1-(6-fluoro-7-methyl-1H-indol-3-yl)-2-((3-methoxy-5-(methylsulfonyl)phenyl)amino)ethanone], for which, in series [1], the EC50 was found to be 0.029 µM. Also, it took 11 µM to reach half-maximal cytotoxicity in series [2] (CC50).
In the same order, the values of `COc1cc(NC(C(=O)c2c[nH]c3c(C)c(Cl)ccc23)c2ccc(F)cc2OCCO)cc(S(C)(=O)=O)c1` (single isomer, unassigned) [Compound 4A, 1-(6-chloro-7-methyl-1H-indol-3-yl)-2-(4-fluoro-2-(2-hydroxyethoxy)phenyl)-2-((3-methoxy-5-(methylsulfonyl)phenyl)amino)ethanone] are 0.011 µM and 11 µM.
Turning to `COc1cc(NC(C(=O)c2c[nH]c3cc(F)c(F)cc23)c2ccc(F)cc2OCCO)cc(S(C)(=O)=O)c1` (single isomer, unassigned) [Compound 5B, 1-(5,6-difluoro-1H-indol-3-yl)-2-(4-fluoro-2-(2-hydroxyethoxy)phenyl)-2-((3-methoxy-5-(methylsulfonyl)phenyl)-amino)ethanone], the EC50 in series [1] is 0.016 µM. This molecule also displayed a CC50 in series [2] of 11 µM.
Taken in the same sequence, the figures for `COc1cc(NC(C(=O)c2c[nH]c3cc(OC)c(C)cc23)c2ccc(F)cc2OCCO)cc(S(C)(=O)=O)c1` (single isomer, unassigned) [Compound 6B, 2-(4-fluoro-2-(2-hydroxyethoxy)phenyl)-2-((3-methoxy-5-(methylsulfonyl)phenyl)amino)-1-(6-methoxy-5-methyl-1H-indol-3-yl)ethanone] were 0.16 µM and 13 µM.
On to `COc1cc(NC(C(=O)c2c[nH]c3cc(F)c(C)cc23)c2ccc(F)cc2OCCO)cc(S(C)(=O)=O)c1` (single isomer, unassigned) [Compound 7B, 2-(4-fluoro-2-(2-hydroxyethoxy)phenyl)-1-(6-fluoro-5-methyl-1H-indol-3-yl)-2-((3-methoxy-5-(methylsulfonyl)phenyl)amino)ethanone], for which the EC50 in series [1] was 0.036 µM. In addition, in series [2], it took 8 µM to reach half-maximal cytotoxicity (CC50).
Taken in the same sequence, the figures for `COc1cc(NC(C(=O)c2c[nH]c3c(F)cc(C)cc23)c2ccc(F)cc2OCCO)cc(S(C)(=O)=O)c1` (single isomer, unassigned) [Compound 8B, 2-(4-fluoro-2-(2-hydroxyethoxy)phenyl)-1-(7-fluoro-5-methyl-1H-indol-3-yl)-2-((3-methoxy-5-(methylsulfonyl)phenyl)amino)ethanone] were 0.048 µM and 8.2 µM.
Taken in the same sequence, the figures for `COc1cc(NC(C(=O)c2c[nH]c3c(C)cc(Cl)cc23)c2ccc(F)cc2OCCO)cc(S(C)(=O)=O)c1` (single isomer, unassigned) [Compound 9B, 1-(5-chloro-7-methyl-1H-indol-3-yl)-2-(4-fluoro-2-(2-hydroxyethoxy)phenyl)-2-((3-methoxy-5-(methylsulfonyl)phenyl)amino)ethanone] were 0.051 µM and 13 µM.
With `COc1cc(NC(C(=O)c2c[nH]c3ccc(OC(F)(F)F)cc23)c2ccc(F)cc2OCCO)cc(S(C)(=O)=O)c1` (single isomer, unassigned) [Compound 10A, 2-(4-fluoro-2-(2-hydroxyethoxy)phenyl)-2-((3-methoxy-5-(methylsulfonyl)phenyl)amino)-1-(5-(trifluoromethoxy)-1H-indol-3-yl)ethanone], the EC50 in series [1] came out at 0.02 µM. This molecule also showed a CC50 in series [2] of 12 µM.
For the molecule `COc1cc(NC(C(=O)c2c[nH]c3cc(OC)c(OC(F)(F)F)cc23)c2ccc(F)cc2OCCO)cc(S(C)(=O)=O)c1` (single isomer, unassigned) [Compound 11A, 2-(4-fluoro-2-(2-hydroxyethoxy)phenyl)-2-((3-methoxy-5-(methyl-sulfonyl)phenyl)amino)-1-(6-methoxy-5-(trifluoromethoxy)-1H-indol-3-yl)ethanone], the EC50 in series [1] amounted to 0.019 µM. This molecule registered a CC50 in series [2] of 12 µM.
Turning to `COc1cc(NC(C(=O)c2c[nH]c3c(C)cc(OC(F)(F)F)cc23)c2ccc(F)cc2OCCO)cc(S(C)(=O)=O)c1` (single isomer, unassigned) [Compound 12B, 2-(4-fluoro-2-(2-hydroxyethoxy)phenyl)-2-((3-methoxy-5-(methylsulfonyl)phenyl)amino)-1-(7-methyl-5-(trifluoromethoxy)-1H-indol-3-yl)ethanone], the EC50 in series [1] was determined as 0.0012 µM. This molecule also gave a CC50 in series [2] of 9.9 µM.
